Results from patent US20150031686A1, “PHENYL-OXAZOLYL DERIVATIVES, PREPARATION METHOD THEREOF, AND RELATED APPLICATION OF THE PHENYL-OXAZOLYL DERIVATIVES AS AN IMPDH INHIBITOR” (INSTITUTE OF MEDICINAL BIOTECHNOLOGY, CHINESE ACADEMY OF …, priority 2012, published 2015).
In brackets after ≈: the same amount, converted by molar mass.

Tests used:
hepatitis B virus [1] = settings: cell line 2215, hepatitis B virus
[2] = system: Coxsackie virus type B6 (COX-B6); assay: Anti-Coxsackie virus type B6 (COX-B6) activity, CPE in Vero cells; format: cell-based; settings: Reed-Muench
Experimental: With Vero (African green monkey kidney) cells as viral hosts, inhibitory effects of the compounds of present invention on the grades of pathological lesions by coxsackievirus B3 (COX-B3), B6 (COX-B6) viruses in Vero cells were determined. The measured results of viral inhibitory activity of the compounds are shown in Table 3 and Table 4; wherein RBV is the control drug ribavirin. The inhibitory activities of the measured compounds against coxsackievirus B3, B6 were stronger than the control.
Screening of Anti-B3, B6 Type Coxsackie Viruses (COX-B3, COX-B6) Activity of the Samples
Prepare stock solutions of COX-B3 (or COX-B6) virus strains as well as tested compounds in DMSO before use. Before tests, dilute the stock solution with culture solution into a certain concentration and then dilute 3 times to make a total of eight dilutions. Use ribavirin (RBV) as positive control. Test procedures are as follows: seed Vero cells into 96-well culture plates, infect with 10^−5 Coxsackie virus of B3 (or B6) type, 24 hours later; adsorb subsequently for 2 hours, then discard the virus solution, add in the sample compounds and the positive control according to the abovementioned dilutions, set cell control wells and virus control wells simultaneously. When the cytopathic effect (CPE) of cells in the virus control wells reach 4+, observe CPE of the cells in each group. Use Reed-Muench method to calculate 50% inhibitory concentration (IC50) of the sample compounds against coxsackie virus B3 (or B6) type.

hepatitis B virus [3] = assay: in vitro; settings: human
IMPDH = IMPDH inhibition activity (A340, IMP substrate, NAD); format: biochemical; settings: compound at 10 μg/mL
Experimental: Measurement of IMPDH Inhibitor Activity
In 96-well plates, use IMP as the substrate and NAD, NADH as chromogenic agents to determine the activity of the compounds described in this invention as IMPDH inhibitor. Add 2 μl of each of the tested sample solution, 20 μl enzyme extract and 30 μl IMP into a sample well in the 96-well plates; 2 μl DMSO and 30 μl IMP solution into a control well; 2 μl DMSO and 20 μl IMPDH buffer instead of the enzyme extract and 30 μl IMP solution into a blank well. Keep plates at constant 37° C. for 15 min, measure absorbance values A340 (OD1) of the solutions in various wells; subsequently, add into each well with 50 μl NAD, keep at constant 37° C. for 50 min, then measure A340 (OD2) values. Calculate IMPDH inhibition rates of samples as follows: Inhibition (%)=[(OD2−OD1)control−(OD2−OD1)Sample]/[(OD2−OD1)control−(OD2−OD1)Blank]×100%.

[4] = system: hepatitis B virus strain A64 (lamivudine resistance)
[5] = system: human lung adenocarcinoma cell A549; assay: In vitro human lung adenocarcinoma cell A549 inhibitory activity (MTT); format: cell-based; settings: Homo sapiens, A549, 48 h
From the text: (§1) According to the progress in the studies on anticancer drugs using IMPDH as a target, the present invention measured inhibitory activities of the compounds of present invention against human hepatoma cell HepG2 and human lung adenocarcinoma cell A549, respectively, the measured results are shown in Table 5:
In Vitro Human Lung Adenocarcinoma Cell A549 Inhibitory Activity Measurement
Cell lines: human lung adenocarcinoma cell A549. Collect well growing tumor cells, prepare cell suspension with Ham's F12 culture solution containing 10% fetal calf serum medium, seed the suspension in 96-well plates, each well 100 μl suspension at 5000 cells/well, incubate at 37° C., under 5% CO2 atmosphere, 24 h later, add 2×drug solution […], each concentration in three parallel holes, set the blank control simultaneously. After culture for 48 h, add 20 μl (5 mg/ml) MTT to each well, culture 4 h, discard the supernatants. Measure absorbance (A) values using Bio-Rad 680 microplate reader at a detection wavelength of 570 nm, the survival rate (%) is calculated as follows: AsampleAblank control×100%. Use statistical software Graphpad Prism5 to calculate IC50. After primary screening of all samples, adjust the concentration gradient of the samples with IC50<100 μg/ml to do additional screenings, which are carried out with two parallel determinations.

hepatitis B virus [6] = assay: microbe, parasite or virus in culture; settings: read-out: IC50 (50% inhibition concentration of the virus)
[7] = system: hepatitis B virus strain A64 (lamivudine resistance); assay: microbe, parasite or virus in culture; settings: read-out: IC50 (50% inhibition concentration of the virus)
[8] = system: human hepatoma cell HepG2; assay: In vitro human hepatoma cell HepG2 inhibitory activity (MTT); format: cell-based; settings: Homo sapiens, HepG2, 48 h
From the text: as §1
In Vitro Human Hepatoma Cell HepG2 Inhibitory Activity Measurement
Collect well growing tumor cells, prepare 6×10^4/ml cell suspension in RPMI-1640 or DMEM culture medium containing 10% FBS, seed in 96-well plates, 100 μl suspension each well, incubate at 37° C. under 5% CO2 atmosphere for 24 h, add the test solution (final concentration of drug: 0.625, 1.25, 2.5, 5.0, 10 μg/ml), for each concentration set three parallel holes, set positive control (cisplatin 10, 1, 0.1 μg/ml) and a blank control simultaneously. After culture for 48 h discard the supernatants, add into each well 10 μl MTT solution (5 mg/ml, prepared with RPMI-1640 medium), continue culturing for 4 It, add into each hole 100 μl acidified isopropanol cell lysate, culture overnight, measure absorbance (A) values with Bio-Tek MQX200 type microplate reader with the detection wavelength at 540 nm, and reference wavelength 450 nm. Calculate the inhibition rate as follows: inhibition rate=(Ablank−Asample)/Ablank control×100%. Use Graphpad Prism 5 statistical software to calculate IC50.

[9] = system: hepatitis B virus strain A64 (lamivudine resistance); assay: in vitro; settings: human
[10] = system: Coxsackie virus type B3 (COX-B3); assay: Anti-Coxsackie virus type B3 (COX-B3) activity, CPE in Vero cells; format: cell-based; settings: Reed-Muench
Method in brief: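 Vero cells infected with 10^−5 COX-B3 or COX-B6 virus, adsorbed 2 h; virus removed, then compounds added at eight 3-fold dilutions, ribavirin as positive control. CPE scored when virus controls reached 4+; IC50 by Reed-Muench.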

## COc1cc(NCc2ccc(Cl)s2)ccc1-c1cnco1 [Compound 4, N-(5-chlorothien-2-ylmethyl)-3-methoxy-4-(oxazol-5-yl) aniline]
Hepatitis B virus [1]
  TC50 (half toxic concentration): 100 µg/mL (≈ 312 µM)
[2]
  IC50: 0.27 µg/mL (≈ 0.842 µM)
Hepatitis B virus [3]
  selectivity ratio: 36.8
IMPDH
  inhibition rate (%) 10 μg/mL: 74.9%
[4]
  TC50 (half toxic concentration): > 50 µg/mL
[5]
  IC50: 16 µg/mL (≈ 50 µM)
Hepatitis B virus [6]
  IC50: 2.72 µg/mL (≈ 8.48 µM)
[7]
  IC50: 1.78 µg/mL (≈ 5.55 µM)
[8]
  IC50: 29.1 µg/mL (≈ 90.7 µM)
[9]
  selectivity ratio: > 28.1
[10]
  IC50: 0.44 µg/mL (≈ 1.37 µM)
